{"source": "patent US20180021450A1", "about": "“ANTI-STAPHYLOCOCCUS AUREUS ANTIBODY RIFAMYCIN CONJUGATES AND USES THEREOF” (Genentech, Inc., priority 2014, published 2018)", "key": {"[1]": {"system": "S. aureus (USA300), stationary phase", "experiment": "Time of kill for free antibiotics on non-replicating bacteria", "type": "cell-based, Staphylococcus aureus", "conditions": "1×10^-6M antibiotic, overnight incubation in PBS at 37° C.", "procedure": "Time of kill for free antibiotics on non-replicating bacteria: S. aureus (USA300) was taken from an overnight stationary phase culture, washed once in Phosphate Buffered Saline (PBS) and suspended at 1×10^7 CFU/mL in PBS with no antibiotic or with 1×10^-6M antibiotic in a 10 mL volume in 50 mL polypropylene centrifuge tubes. The bacteria were incubated at 37° C. overnight with shaking. At each time point, three 1 mL samples were removed from each culture and centrifuged to collect the bacteria. Bacteria were washed once with PBS to remove the antibiotic and the total number of surviving bacteria was determined by plating serial dilutions of the bacteria on agar plates.\nMRSA was collected from a stationary phase culture and suspended in phosphate buffered saline containing no antibiotic or 1×10^-6M of rifampin or the rifamycin-derivative (Rifalog) and incubated at 37° C. At the indicated times, a sample of the culture was collected and centrifuged to remove the antibiotic and the total number of surviving bacteria was determined by plating."}, "[2]": {"system": "S. aureus (USA300) persister cells", "experiment": "Killing of persister cells by free antibiotics", "type": "cell-based, Staphylococcus aureus", "conditions": "ciprofloxacin-treated cultures, second antibiotic 1 ug/ml", "procedure": "Killing of persisters cells by free antibiotics: S. aureus (USA300) was taken from an overnight stationary phase culture, washed once in Tryptic Soy Broth (TSB) and then adjusted to a final concentration of 1×10^7 CFU/ml in a total volume of 10 mL of either TSB or TSB with ciprofloxicin (0.05 mM). Cultures were incubated with shaking at 37° C. for 6 hours and then the second antibiotic, either rifampicin (1 ug/ml) or another rifamycin-type antibiotic (1 ug/ml) was added. At the indicated times, samples were removed from each culture, washed once with PBS to remove the antibiotic and re-suspended in PBS. The total number of surviving bacteria was determined by plating serial dilutions of the bacteria on agar plates. At the final time point the remainder of each culture was collected and plated."}, "[3]": {"system": "MRSA (USA300 NRS384 strain)", "experiment": "Murine intravenous infection model (CB17.SCID mice reconstituted with IGIV)", "type": "in vivo, Staphylococcus aureus", "conditions": "single dose 24h post infection; free antibiotic at equal molar concentration", "procedure": "S. aureus is a common colonizer of human skin and mucosal surfaces. […] Mouse serum has no appreciable levels of anti-S aureus antibody. To determine whether endogenous anti-WTA antibodies found in normal human serum might compete for binding with the AAC, CB17.SCID mice (Charles River Laboratories, Hollister, Calif.) were reconstituted with GammaGard S/D IGIV Immune Globulin (ASD Healthcare, Brooks Ky.) using a dosing regimen optimized to achieve constant serum levels of at least 10 mg/mL of human IgG in serum. IGIV was administered with an initial intravenous dose of 30 mg per mouse followed by a second dose of 15 mg/mouse by intraperitoneal (i.p.) injection after 6 hours, and subsequent daily dosings of 15 mg per mouse by intraperitoneal injection for 3 consecutive days. These mice were equally susceptible to infection with MRSA compared to untreated controls.\nMice (n=8 for each of antibody or AAC) were infected 4 hours after the first dose of IGIV with 1×10^7 CFU of MRSA (USA300 NRS384 strain) diluted in phosphate buffered saline by intravenous injection. Infected mice were treated with 50 mg/kg of S4497 naked antibody or S4497 AAC from Table 3. […] The total number of bacteria recovered per organ was determined by plating serial dilutions of the tissue homogenate in PBS 0.05% Tween on Tryptic Soy Agar with 5% defibrinated sheep blood."}}, "data": [{"compound": "CO[C@H]1/C=C/O[C@@]2(C)Oc3c(C)c(O)c4c(=O)c(c5oc6cc(N7CCC(N(C)C)CC7)cc(O)c6nc-5c4c3C2=O)NC(=O)/C(C)=C\\C=C\\[C@H](C)[C@H](O)[C@@H](C)[C@@H](O)[C@@H](C)[C@H](OC(C)=O)[C@@H]1C", "note": "[dimethylpipBOR, dimethylpiperidyl benzoxazino rifamycin]", "values": [{"measurement": "decrease in the number of viable, but non-replicating, bacteria", "setting": "[1]", "value": "more than 1,000 fold"}, {"measurement": "effect on viability of persister cells", "setting": "[2]", "value": "eradication of persister cells below the limit of detection"}, {"measurement": "efficacy on bacterial counts in infected organs", "setting": "[3]", "value": "not efficacicou"}]}]}
